# Experimental data reported in PubChem BioAssay AID1963431 (Molecular Pharmacology Branch, DTP, NCI, 2024).
# System: Rh18 complex spheroid viability, percent test/control
# Assay: Anticancer human tumor Rh18 cell line growth inhibition [Asc];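 note: spheroids exposed to compound for 7 days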;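 for viability, T/C: 100% = DMSO vehicle control wells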
# Conditions: for IC50: curve of first compound; for viability, T/C: stronger effect = lower value
# Procedure, shortened: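 Complex spheroids combining tumor cells with HUVEC endothelial cells and human MSCs, at 37 degrees C, 5% CO2; agents tested alone or combined, half-log dilutions from at or near clinical Cmax, or 10 microM if Cmax unknown.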
smiles,measurement,setting,value
NC(=O)C(=Cn1cnc(-c2cc(C(F)(F)F)cc(C(F)(F)F)c2)n1)c1cncnc1 + Cc1c(S(C)(=O)=O)c(-c2cc(F)cc(N3CCN(c4ccc(NS(=O)(=O)c5ccc(NC(CCN6CCC(C(=O)OCCCP(=O)(O)O)CC6)CSc6ccccc6)c(S(=O)(=O)C(F)(F)F)c5)cc4)CC3)c2)c(-c2ccc(Cl)cc2)n1C(C)C,IC50,second compound 0.1 µM,< 0.949 nM
same,IC50,second compound 0.316 µM,< 0.949 nM
same,IC50,second compound 1 µM,< 0.949 nM
same,IC50,second compound 3.16 µM,< 0.949 nM
same,IC50,second compound 10 µM,< 0.949 nM
same,"viability, T/C","second compound 0.1 µM, first compound 0.000949 µM",13.5%
same,"viability, T/C","second compound 0.1 µM, first compound 0.003 µM",16.7%
same,"viability, T/C","second compound 0.1 µM, first compound 0.00949 µM",18.6%
same,"viability, T/C","second compound 0.1 µM, first compound 0.03 µM",13.7%
same,"viability, T/C","second compound 0.1 µM, first compound 0.0949 µM",9.41%
same,"viability, T/C","second compound 0.1 µM, first compound 0.3 µM",5.69%
same,"viability, T/C","second compound 0.316 µM, first compound 0.000949 µM",15.2%
same,"viability, T/C","second compound 0.316 µM, first compound 0.003 µM",13.6%
same,"viability, T/C","second compound 0.316 µM, first compound 0.00949 µM",10.8%
same,"viability, T/C","second compound 0.316 µM, first compound 0.03 µM",9.84%
same,"viability, T/C","second compound 0.316 µM, first compound 0.0949 µM",9.11%
same,"viability, T/C","second compound 0.316 µM, first compound 0.3 µM",3.67%
same,"viability, T/C","second compound 1 µM, first compound 0.000949 µM",10.2%
same,"viability, T/C","second compound 1 µM, first compound 0.003 µM",9.49%
same,"viability, T/C","second compound 1 µM, first compound 0.00949 µM",8.9%
same,"viability, T/C","second compound 1 µM, first compound 0.03 µM",7.48%
same,"viability, T/C","second compound 1 µM, first compound 0.0949 µM",7.03%
same,"viability, T/C","second compound 1 µM, first compound 0.3 µM",2.37%
same,"viability, T/C","second compound 3.16 µM, first compound 0.000949 µM",7.63%
same,"viability, T/C","second compound 3.16 µM, first compound 0.003 µM",8.78%
same,"viability, T/C","second compound 3.16 µM, first compound 0.00949 µM",7.9%
same,"viability, T/C","second compound 3.16 µM, first compound 0.03 µM",5.11%
same,"viability, T/C","second compound 3.16 µM, first compound 0.0949 µM",4.79%
same,"viability, T/C","second compound 3.16 µM, first compound 0.3 µM",2.11%
same,"viability, T/C","second compound 10 µM, first compound 0.000949 µM",4.44%
same,"viability, T/C","second compound 10 µM, first compound 0.003 µM",6.25%
same,"viability, T/C","second compound 10 µM, first compound 0.00949 µM",6.34%
same,"viability, T/C","second compound 10 µM, first compound 0.03 µM",5.72%
same,"viability, T/C","second compound 10 µM, first compound 0.0949 µM",3.51%
same,"viability, T/C","second compound 10 µM, first compound 0.3 µM",1.84%
NC1CCC(NC2CC2c2ccccc2)CC1 (stereo not given) + Cc1c(S(C)(=O)=O)c(-c2cc(F)cc(N3CCN(c4ccc(NS(=O)(=O)c5ccc(NC(CCN6CCC(C(=O)OCCCP(=O)(O)O)CC6)CSc6ccccc6)c(S(=O)(=O)C(F)(F)F)c5)cc4)CC3)c2)c(-c2ccc(Cl)cc2)n1C(C)C,IC50,second compound 0.1 µM,< 0.316 nM
same,IC50,second compound 0.316 µM,< 0.316 nM
same,IC50,second compound 1 µM,< 0.316 nM
same,IC50,second compound 3.16 µM,< 0.316 nM
same,IC50,second compound 10 µM,< 0.316 nM
same,"viability, T/C","second compound 0.1 µM, first compound 0.000316 µM",13.1%
same,"viability, T/C","second compound 0.1 µM, first compound 0.001 µM",13.2%
same,"viability, T/C","second compound 0.1 µM, first compound 0.00316 µM",10.9%
same,"viability, T/C","second compound 0.1 µM, first compound 0.01 µM",10.2%
same,"viability, T/C","second compound 0.1 µM, first compound 0.0316 µM",12.5%
same,"viability, T/C","second compound 0.1 µM, first compound 0.1 µM",11.2%
same,"viability, T/C","second compound 0.316 µM, first compound 0.000316 µM",10.4%
same,"viability, T/C","second compound 0.316 µM, first compound 0.001 µM",9.84%
same,"viability, T/C","second compound 0.316 µM, first compound 0.00316 µM",8.02%
same,"viability, T/C","second compound 0.316 µM, first compound 0.01 µM",8.28%
same,"viability, T/C","second compound 0.316 µM, first compound 0.0316 µM",8.54%
same,"viability, T/C","second compound 0.316 µM, first compound 0.1 µM",8.22%
same,"viability, T/C","second compound 1 µM, first compound 0.000316 µM",6.65%
same,"viability, T/C","second compound 1 µM, first compound 0.001 µM",6.65%
same,"viability, T/C","second compound 1 µM, first compound 0.00316 µM",6.88%
same,"viability, T/C","second compound 1 µM, first compound 0.01 µM",4.85%
same,"viability, T/C","second compound 1 µM, first compound 0.0316 µM",5.16%
same,"viability, T/C","second compound 1 µM, first compound 0.1 µM",5.77%
same,"viability, T/C","second compound 3.16 µM, first compound 0.000316 µM",4.21%
same,"viability, T/C","second compound 3.16 µM, first compound 0.001 µM",3.65%
same,"viability, T/C","second compound 3.16 µM, first compound 0.00316 µM",3.75%
same,"viability, T/C","second compound 3.16 µM, first compound 0.01 µM",3.61%
same,"viability, T/C","second compound 3.16 µM, first compound 0.0316 µM",3.49%
same,"viability, T/C","second compound 3.16 µM, first compound 0.1 µM",4.43%
same,"viability, T/C","second compound 10 µM, first compound 0.000316 µM",2.72%
same,"viability, T/C","second compound 10 µM, first compound 0.001 µM",3.65%
same,"viability, T/C","second compound 10 µM, first compound 0.00316 µM",3%
same,"viability, T/C","second compound 10 µM, first compound 0.01 µM",2.12%
same,"viability, T/C","second compound 10 µM, first compound 0.0316 µM",2.21%
same,"viability, T/C","second compound 10 µM, first compound 0.1 µM",2.07%
C=C(F)C(=O)N1CCN(c2nc(OCC3CCCN3C)nc3c2CCN(c2cccc4cccc(Cl)c24)C3)CC1CC#N (stereo not given) + CCN1C(C(=O)NC23CCC(C(=O)O)(CC2)CC3)C(c2cccc(Cl)c2F)C2(C(=O)Nc3cc(Cl)ccc32)C12CCCCC2,IC50,second compound 0.03 µM,< 31.6 nM
same,IC50,second compound 0.0949 µM,< 31.6 nM
same,IC50,second compound 0.3 µM,< 31.6 nM
same,IC50,second compound 0.949 µM,< 31.6 nM
same,IC50,second compound 3 µM,< 31.6 nM
same,"viability, T/C","second compound 0.03 µM, first compound 0.0316 µM",25.2%
same,"viability, T/C","second compound 0.03 µM, first compound 0.1 µM",28.7%
same,"viability, T/C","second compound 0.03 µM, first compound 0.316 µM",35.2%
same,"viability, T/C","second compound 0.03 µM, first compound 1 µM",32.9%
same,"viability, T/C","second compound 0.03 µM, first compound 3.16 µM",31.6%
same,"viability, T/C","second compound 0.03 µM, first compound 10 µM",0.2%
same,"viability, T/C","second compound 0.0949 µM, first compound 0.0316 µM",19.6%
same,"viability, T/C","second compound 0.0949 µM, first compound 0.1 µM",20.5%
same,"viability, T/C","second compound 0.0949 µM, first compound 0.316 µM",17.7%
same,"viability, T/C","second compound 0.0949 µM, first compound 1 µM",18.5%
same,"viability, T/C","second compound 0.0949 µM, first compound 3.16 µM",7.46%
same,"viability, T/C","second compound 0.0949 µM, first compound 10 µM",0.15%
same,"viability, T/C","second compound 0.3 µM, first compound 0.0316 µM",10.7%
same,"viability, T/C","second compound 0.3 µM, first compound 0.1 µM",10.4%
same,"viability, T/C","second compound 0.3 µM, first compound 0.316 µM",9.23%
same,"viability, T/C","second compound 0.3 µM, first compound 1 µM",7.64%
same,"viability, T/C","second compound 0.3 µM, first compound 3.16 µM",3.23%
same,"viability, T/C","second compound 0.3 µM, first compound 10 µM",0.14%
same,"viability, T/C","second compound 0.949 µM, first compound 0.0316 µM",8.48%
same,"viability, T/C","second compound 0.949 µM, first compound 0.1 µM",8.88%
same,"viability, T/C","second compound 0.949 µM, first compound 0.316 µM",8.35%
same,"viability, T/C","second compound 0.949 µM, first compound 1 µM",6.27%
same,"viability, T/C","second compound 0.949 µM, first compound 3.16 µM",2.4%
same,"viability, T/C","second compound 0.949 µM, first compound 10 µM",0.14%
same,"viability, T/C","second compound 3 µM, first compound 0.0316 µM",7.28%
same,"viability, T/C","second compound 3 µM, first compound 0.1 µM",7.78%
same,"viability, T/C","second compound 3 µM, first compound 0.316 µM",8.39%
same,"viability, T/C","second compound 3 µM, first compound 1 µM",5.04%
same,"viability, T/C","second compound 3 µM, first compound 3.16 µM",2.37%
same,"viability, T/C","second compound 3 µM, first compound 10 µM",0.17%
